Results reported in patent US20180296559A1, “TREATMENT OF AIRWAY SMOOTH MUSCLE DYSFUNCTION” (priority 2016, published 2018).

Tests used:
wild-type mice [1] = test: In vivo airway resistance following methacholine challenge; details: 100 μl of 5 mM, intraperitoneal, daily for 3 days, vs vehicle
Method: FIG. 3. In vivo treatment with NVP-TAE684 decreases cholinergic induced airway hyper-responsiveness. Mice were pretreated with control vehicle (DMSO, black circles) or NVP-TAE684 (grey circles) for 3 days (n=10 animals per group). Airway resistance following methacholine treatment was then determined. Data are shown as mean values with SEM and are fitted with a four-parameter logistic regression algorithm (solid line).
Measurement of in vivo airway resistance. WT mice were pretreated with either PYK2 inhibitor NVP-TAE684 (100 μl of 5 mM, 1% DMSO) or vehicle (1% DMSO) was given via intra-peritoneal injections daily for 3 days prior and including the day of pulmonary measurements. Mice were anesthetized with ketamine (50 or 100 mg/kg) and xylazine (0-10 mg/kg). Following tracheotomy, an 18-gauge cannula was inserted and securely tied with 4.0 braided silk. The animals were then mechanically ventilated with a computer-controlled small-animal ventilator (FlexiVent, SCIREQ, Montreal, Quebec) using a tidal volume of 8 mL/kg at a rate of 180 breaths/min and PEEP of 3.5 cm H2O. Pulmonary resistance was measured by the computer controlled ventilator by interrupting ventilation and imposing broadband low-frequency oscillatory waveforms and then resuming ventilation. […]

wild-type mice [2] = test: Morphologic analysis of histological sections of treated mice; type: in vivo
[3] = system: tracheal airway smooth muscle strips; test: Airway smooth muscle strip isometric force generation following acetylcholine; type: cell-based, pig
From the text: FIG. 2. NVP-TAE684 decreases airway smooth muscle force generation. Wild-type airway smooth muscle strip isometric force generation following acetylecholine treatment in muscle strips pretreated with control vehicle (DMSO, black circles) or NVP-TAE684 (grey circles) (n=5 animals per group). Data are shown as mean values with SEM and are fitted with a four-parameter logistic regression algorithm (solid line).
Airway smooth muscle tissue and cells. Trachea from newborn WT […] or CFTR^−/− pigs was excised and placed in modified Krebs Solution containing (mM): 120.8 NaCl, 5.9 KCl, 0.2 CaCl2, 1.2 MgCl2, 1.2 NaH2PO4, 2 NaHCO3, 11 d-glucose, and 10 HEPES, pH 7.4. The trachealis muscle was dissected by removing the cartilage and epithelial layers. For force measurements, strips of trachealis smooth muscle were hung in a tissue perfusion system (Radnoti LLC, Monrovia, Calif.). For cell isolation, the remaining medial layers were minced and digested using a papain dissociation system (Worthington, Lakewood, N.J.) based upon previous studies (10). The minced smooth muscle was suspended in Earle's balanced salt solution (EBSS) containing papain (10 U/ml) and DNase (1000 U/ml) and incubated at 37° C. for 1 hr. Collagenase (0.5mg/m1) was added and after 1 hr the mixture triturated. Primary cells were grown to confluence in a 1:1 mixture of DMEM and Ham's F12 on fibrinogen-coated 6-well plates. All solutions contained 100 U/ml penicillin and 0.1 mg/ml streptomycin. Primary culture cells were allowed to grow for 8-10 d until confluent. […]
Measurement of airway smooth muscle force generation. […] The contractile activity was recorded with Grass isometric force transducers and amplifiers connected to a Biopac data acquisition system (Biopac Systems, Goleta, Calif.). […] The smooth muscle force from NVP-TAE684 or DMSO pretreated strips was determined by obtaining concentration-response curves to acetylcholine (10^−9 to 10^−2 M) in the muscle bath. […]

[4] = system: porcine precision cut lung slices; test: Airway contraction in precision cut lung slices in response to methacholine; type: cell-based; details: WT newborn pig lung slices pretreated overnight with 10 μM compound vs DMSO
From the text: FIG. 1. NVP-TAE684 decreases airway contraction in porcine precision cut lung slices. Percent airway lumen area contraction in response to methacholine in porcine precision cut lung slices pretreated with control vehicle (DMSO, black circles) or NVP-TAE684 (grey circles), normalized to maximal contractile response (n=6 animals per group). Data are shown as mean values with SEM and are fitted with a four-parameter logistic regression algorithm (solid line).
Precision cut lung slice preparation. Precision cut lung slices were isolated as previously described (11) from wild type newborn pigs. Lung slice culture media consisted of Dulbecco's Modified Eagle Medium (Gibco, Big Cabin, Okla.), 10% fetal bovine serum (Gibco, Big Cabin, Okla.), 1% penicillin-streptomycin (5,000 U/mL, Gibco, Big Cabin, Okla.), and 0.1% gentamicin (50 mg/mL, Gibco, Big Cabin, Okla.).
For the porcine lung slice studies, the tracheal bronchus from collected tracheal lobes was cannulated with a 24 G IV catheter (BD Medical) and a tight seal was created using suture. The tracheal lobe was instilled with approximately 10 mL of 2% UltraPure Low Melting Point agarose (Invitrogen, Carlsbad, Calif.) solution and cooled at −20° C. for 30 min. […] For all PCLS experiments, maximal airway contraction was analyzed for each dose by lumen area measurements performed in ImageJ (NIH). […]

Recombinant human PYK2 = Recombinant human PYK2 (Homo sapiens, UniProt Q14289); test: ADP-based phosphatase-coupled kinase assay (malachite green); type: biochemical; details: 10, 25, or 100 μM compound vs DMSO; PYK2 0.5 and 2 μg/ml
Chain of Recombinant human PYK2 (Q14289 whole entry): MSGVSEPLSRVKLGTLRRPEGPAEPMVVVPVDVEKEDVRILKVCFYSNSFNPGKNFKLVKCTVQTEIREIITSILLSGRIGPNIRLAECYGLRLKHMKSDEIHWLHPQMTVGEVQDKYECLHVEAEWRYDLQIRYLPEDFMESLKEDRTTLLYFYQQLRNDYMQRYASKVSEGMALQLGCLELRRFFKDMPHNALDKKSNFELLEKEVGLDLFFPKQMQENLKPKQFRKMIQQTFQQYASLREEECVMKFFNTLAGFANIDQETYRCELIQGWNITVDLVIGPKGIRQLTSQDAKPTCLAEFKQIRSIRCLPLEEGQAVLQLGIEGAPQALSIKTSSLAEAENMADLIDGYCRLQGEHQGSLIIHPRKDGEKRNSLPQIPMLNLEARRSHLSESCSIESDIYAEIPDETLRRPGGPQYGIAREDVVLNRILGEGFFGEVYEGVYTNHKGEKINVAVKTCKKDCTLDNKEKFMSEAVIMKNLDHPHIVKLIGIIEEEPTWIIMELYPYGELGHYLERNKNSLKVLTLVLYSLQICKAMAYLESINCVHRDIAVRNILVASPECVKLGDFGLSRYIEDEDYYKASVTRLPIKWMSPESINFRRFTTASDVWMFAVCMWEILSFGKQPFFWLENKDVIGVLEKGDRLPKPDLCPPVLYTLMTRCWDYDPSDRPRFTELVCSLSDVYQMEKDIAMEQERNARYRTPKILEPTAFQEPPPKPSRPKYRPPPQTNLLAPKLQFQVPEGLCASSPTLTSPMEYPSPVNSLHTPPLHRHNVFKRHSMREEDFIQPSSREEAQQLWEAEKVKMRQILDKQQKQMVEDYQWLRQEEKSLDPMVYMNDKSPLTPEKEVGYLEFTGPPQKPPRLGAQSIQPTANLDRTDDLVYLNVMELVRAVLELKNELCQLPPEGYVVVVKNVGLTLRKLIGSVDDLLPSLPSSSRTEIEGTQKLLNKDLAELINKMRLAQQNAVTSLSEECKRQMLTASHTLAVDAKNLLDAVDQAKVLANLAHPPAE
Method: FIG. 4. Recombinant human PYK2 was treated with either DMSO or 10, 25, or 100 μM ceritinib. PYK2 activity was measured by using an ADP-based phosphatase-coupled kinase assay. ADP from PYK2 activity releases an inorganic phosphate via a coupling enzyme and is detected using malachite green reagent. The amount of inorganic phosphate released is proportional to the amount of ADP generated during the kinase reaction. Two concentrations of PYK2 (0.5 and 2 μg/ml) were tested.

[5] = pretreated with 10 μM compound vs DMSO

Structure (SMILES)	respiratory response to inhaled methacholine (airway resistance) (wild-type mice [1])	drug-induced toxicity in histological sections of heart, kidney, and liver (wild-type mice [2]; mouse, in vivo)	changes in epithelia, cartilage or airway smooth muscle layers (lung parenchyma, conducting airways, trachea sections) (wild-type mice [2]; treated mice vs vehicle control mice)	maximal force production ([3]; newborn WT pig tracheal muscle strips pretreated with 10 μM compound, acetylcholine dose response) [mN]	force generation in tracheal smooth muscle strips across all doses of acetylcholine [3, 5]	median effective concentrations of acetylcholine, compound-pretreated vs DMSO-pretreated strips [3, 5]	airway narrowing in response to increasing dosages of methacholine, measured by luminal area [4]	PYK-2 activity (Recombinant human PYK2)
COc1cc(N2CCC(N3CCN(C)CC3)CC2)ccc1Nc1ncc(Cl)c(Nc2ccccc2S(=O)(=O)C(C)C)n1 [NVP-TAE684]	significantly decreased	no evidence of drug-induced toxicity	no significant changes	40	decreased force generation	no significant differences	decreased the airway narrowing	
Cc1cc(Nc2ncc(Cl)c(Nc3ccccc3S(=O)(=O)C(C)C)n2)c(OC(C)C)cc1C1CCNCC1 [ceritinib]								dose-dependent decrease
